*1 amine or outer side, *2 acyl side, *3 side chain or, on linkers, in order; H or OH if unused. Where a SMILES comes first, the peptide text is derived from it. Side-chain parts run from the residue outwards. [ ]: non-standard residue; d: D form. The star is where a group is joined. C20 diacid = O=C(O)CCCCCCCCCCCCCCCCCCC(=O)*; γGlu = O=C(O)[C@H](CCC(=O)[*:2])N[*:1]; αMeL = CC(C)C[C@](C)(N)C(=O)O; AEEA = NCCOCCOCC(=O)O; Aib = CC(C)(N)C(=O)O
Tests used:
[1] = target: T1, human glucagon receptor (GcgR) (Homo sapiens, UniProt P47871); experiment: Radioligand competition binding (SPA), human GcgR membranes
T1 construct: expressed in transfected cells; host or cells: HEK293 (membranes)
T1 sequence (P47871 26-477): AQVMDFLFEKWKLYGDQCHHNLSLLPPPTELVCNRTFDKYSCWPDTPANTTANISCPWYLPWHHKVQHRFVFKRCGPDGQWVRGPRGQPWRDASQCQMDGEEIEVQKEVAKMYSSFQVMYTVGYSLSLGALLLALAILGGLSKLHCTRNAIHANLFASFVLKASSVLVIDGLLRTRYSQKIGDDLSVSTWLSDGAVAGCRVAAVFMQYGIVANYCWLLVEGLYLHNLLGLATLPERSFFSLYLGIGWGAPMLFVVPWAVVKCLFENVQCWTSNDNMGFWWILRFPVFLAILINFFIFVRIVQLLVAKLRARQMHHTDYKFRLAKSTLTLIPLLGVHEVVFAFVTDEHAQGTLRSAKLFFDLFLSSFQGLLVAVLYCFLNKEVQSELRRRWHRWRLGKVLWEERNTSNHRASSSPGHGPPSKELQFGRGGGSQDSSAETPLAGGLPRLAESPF
Excerpt: (§1) Radioligand competition binding assays are run to determine the equilibrium dissociation constant for exemplary compounds and comparator molecules.
(§2) Competition curves are plotted as the percent specific inhibition (y-axis) versus log concentration of compound (x-axis) and analyzed using a four parameter nonlinear regression fit with variable slope (ABase or Genedata).

[2] = Pharmacokinetics in male Sprague Dawley rats; conditions: for CL/F / Tmax / half-life: male, Sprague-Dawley, rat, plasma, sc, 100 nmol/kg; for AUCINF_D_obs / Cmax/D: single subcutaneous 100 nMol/kg, male Sprague Dawley rats, n = 3
Protocol: The pharmacokinetics of the exemplary analogs are evaluated following a single subcutaneous administration of 100 nM/kg to male Sprague Dawley rats. Blood samples are collected over 120 hours, and resulting individual plasma concentrations are used to calculate pharmacokinetic parameters. Peptide plasma (K3 EDTA) concentrations are determined using a qualified LC/MS method that measured the intact mass of the analog. Each peptide and an analog as an internal standard are extracted from 100% specie specified plasma using methanol with 0.1% formic acid. A Thermo Q-Exactive, High Resolution Instrument, and a Thermo Easy Spray PepMap are combined for LC/MS detection.

[3] = target: T2, human GIP receptor (GIPR) (Homo sapiens, UniProt P48546); experiment: Radioligand competition binding (SPA), human GIPR membranes
T2 construct: expressed in transfected cells; host or cells: HEK293 (membranes)
T2 sequence (P48546 22-466): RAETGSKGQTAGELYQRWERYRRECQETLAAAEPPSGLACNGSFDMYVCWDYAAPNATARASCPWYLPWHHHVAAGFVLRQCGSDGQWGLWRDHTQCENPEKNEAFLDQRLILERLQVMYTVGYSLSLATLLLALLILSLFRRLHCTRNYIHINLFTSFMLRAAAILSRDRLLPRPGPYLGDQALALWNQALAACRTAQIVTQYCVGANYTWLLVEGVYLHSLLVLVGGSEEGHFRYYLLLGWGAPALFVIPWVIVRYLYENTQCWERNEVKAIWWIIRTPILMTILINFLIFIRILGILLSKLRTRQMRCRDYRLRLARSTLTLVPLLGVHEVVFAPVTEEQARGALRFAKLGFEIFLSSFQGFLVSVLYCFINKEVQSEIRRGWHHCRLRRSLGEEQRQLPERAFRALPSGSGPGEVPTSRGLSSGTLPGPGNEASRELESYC
Excerpt: as §1, §2

[4] = target: T3, GLP-1 receptor (GLP-1R) (Homo sapiens, UniProt P43220); experiment: Radioligand competition binding (SPA), human GLP-1R membranes
T3 construct: expressed in transfected cells; host or cells: HEK293 (membranes)
T3 sequence (P43220 24-463): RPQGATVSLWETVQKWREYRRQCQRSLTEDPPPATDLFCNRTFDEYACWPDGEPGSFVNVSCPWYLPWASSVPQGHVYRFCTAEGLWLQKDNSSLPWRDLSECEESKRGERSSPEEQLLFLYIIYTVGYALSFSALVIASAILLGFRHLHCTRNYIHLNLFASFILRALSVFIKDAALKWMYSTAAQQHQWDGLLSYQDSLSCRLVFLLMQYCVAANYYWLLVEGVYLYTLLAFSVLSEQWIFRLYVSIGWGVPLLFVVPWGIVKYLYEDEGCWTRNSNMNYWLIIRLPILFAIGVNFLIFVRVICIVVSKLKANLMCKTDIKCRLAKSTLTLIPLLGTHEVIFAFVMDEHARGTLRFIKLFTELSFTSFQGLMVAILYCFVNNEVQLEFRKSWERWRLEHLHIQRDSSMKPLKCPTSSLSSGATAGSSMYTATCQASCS
Excerpt: as §1, §2

| Compound | Ki [1] | CL/F [2] | Tmax [2] | half-life [2] | AUCINF_D_obs [2] | Cmax/D [2] | Ki [3] | Ki [4] |
| --- | --- | --- | --- | --- | --- | --- | --- | --- |
| CC[C@H](C)[C@H](NC(=O)[C@H](Cc1ccccc1)NC(=O)[C@H](C)NC(=O)C(C)(C)NC(=O)[C@H](CCC(N)=O)NC(=O)[C@H](C)NC(=O)[C@H](CCCCNC(=O)COCCOCCNC(=O)CC[C@H](NC(=O)CCCCCCCCCCCCCCCCCCC(=O)O)C(=O)O)NC(=O)[C@H](CCCCN)NC(=O)[C@H](CC(=O)O)NC(=O)[C@H](CC(C)C)NC(=O)[C@](C)(CC(C)C)NC(=O)[C@@H](NC(=O)[C@H](CO)NC(=O)[C@H](Cc1ccc(O)cc1)NC(=O)[C@H](CC(=O)O)NC(=O)[C@H](CO)NC(=O)[C@@H](NC(=O)[C@H](Cc1ccccc1)NC(=O)[C@@H](NC(=O)CNC(=O)[C@H](CCC(N)=O)NC(=O)C(C)(C)NC(=O)[C@@H](N)Cc1ccc(O)cc1)[C@@H](C)O)[C@@H](C)O)[C@@H](C)CC)C(=O)N[C@@H](CCC(=O)O)C(=O)N[C@@H](Cc1ccc(O)cc1)C(=O)N[C@@H](CC(C)C)C(=O)N[C@@H](CC(C)C)C(=O)N[C@@H](CCC(=O)O)C(=O)NCC(=O)NCC(=O)N1CCC[C@H]1C(=O)N[C@@H](CO)C(=O)N[C@@H](CO)C(=O)NCC(=O)N[C@@H](C)C(=O)N1CCC[C@H]1C(=O)N1CCC[C@H]1C(=O)N1CCC[C@H]1C(=O)N[C@@H](CO)C(N)=O [Example 12] | 5.6 nM | 5.1 mL/h/kg | 24 h | 26.5 h | 197.1 hr*kg*nmol/L/nmol | 3.7 kg*nmol/L/nmol | – | – |
| CC[C@H](C)[C@H](NC(=O)[C@H](Cc1ccccc1)NC(=O)[C@H](C)NC(=O)C(C)(C)NC(=O)[C@H](CCC(N)=O)NC(=O)[C@H](C)NC(=O)[C@H](CCCCNC(=O)COCCOCCNC(=O)CC[C@H](NC(=O)CCCCCCCCCCCCCCCCCCC(=O)O)C(=O)O)NC(=O)[C@H](CCCCN)NC(=O)[C@H](CC(=O)O)NC(=O)[C@H](CC(C)C)NC(=O)[C@H](CC(C)C)NC(=O)[C@@H](NC(=O)[C@H](CO)NC(=O)[C@H](Cc1ccc(O)cc1)NC(=O)[C@H](CC(=O)O)NC(=O)[C@H](CO)NC(=O)[C@@H](NC(=O)[C@H](Cc1ccccc1)NC(=O)[C@@H](NC(=O)CNC(=O)[C@H](CCC(N)=O)NC(=O)C(C)(C)NC(=O)[C@@H](N)Cc1ccc(O)cc1)[C@@H](C)O)[C@@H](C)O)[C@@H](C)CC)C(=O)N[C@@H](CCC(=O)O)C(=O)N[C@@H](Cc1ccc(O)cc1)C(=O)N[C@@H](CC(C)C)C(=O)N[C@@H](CC(C)C)C(=O)N[C@@H](CCC(=O)O)C(=O)NCC(=O)NCC(=O)N1CCC[C@H]1C(=O)N[C@@H](CO)C(=O)N[C@@H](CO)C(=O)NCC(=O)N[C@@H](C)C(=O)N1CCC[C@H]1C(=O)N1CCC[C@H]1C(=O)N1CCC[C@H]1C(=O)N[C@@H](CO)C(N)=O [Example 18] | 5.71 nM | 3.6 mL/h/kg | 24 h | 34.8 h | 284.3 hr*kg*nmol/L/nmol | 5.0 kg*nmol/L/nmol | 0.0835 nM | 8.06 nM |
| CC[C@H](C)[C@H](NC(=O)[C@H](Cc1ccccc1)NC(=O)[C@H](C)NC(=O)C(C)(C)NC(=O)[C@H](CCC(N)=O)NC(=O)[C@H](C)NC(=O)[C@H](CCCCNC(=O)COCCOCCNC(=O)COCCOCCNC(=O)CC[C@H](NC(=O)CCCCCCCCCCCCCCCCCCC(=O)O)C(=O)O)NC(=O)[C@H](CCCCN)NC(=O)[C@H](CC(=O)O)NC(=O)[C@H](CC(C)C)NC(=O)[C@](C)(CC(C)C)NC(=O)[C@@H](NC(=O)[C@H](CO)NC(=O)[C@H](Cc1ccc(O)cc1)NC(=O)[C@H](CC(=O)O)NC(=O)[C@H](CO)NC(=O)[C@@H](NC(=O)[C@H](Cc1ccccc1)NC(=O)[C@@H](NC(=O)CNC(=O)[C@H](CCC(N)=O)NC(=O)C(C)(C)NC(=O)[C@@H](N)Cc1ccc(O)cc1)[C@@H](C)O)[C@@H](C)O)[C@@H](C)CC)C(=O)N[C@@H](CCC(=O)O)C(=O)N[C@@H](Cc1ccc(O)cc1)C(=O)N[C@@H](CC(C)C)C(=O)N[C@@H](CC(C)C)C(=O)N[C@@H](CCC(=O)O)C(=O)NCC(=O)NCC(=O)N1CCC[C@H]1C(=O)N[C@@H](CO)C(=O)N[C@@H](CO)C(=O)NCC(=O)N[C@@H](C)C(=O)N1CCC[C@H]1C(=O)N1CCC[C@H]1C(=O)N1CCC[C@H]1C(=O)N[C@@H](CO)C(N)=O [Example 11] | 10.8 nM | 4.7 mL/h/kg | 20 h | 24.3 h | 215.1 hr*kg*nmol/L/nmol | 3.7 kg*nmol/L/nmol | 0.089 nM | 9.97 nM |
| CC[C@H](C)[C@H](NC(=O)[C@H](Cc1ccccc1)NC(=O)[C@H](C)NC(=O)[C@H](Cc1c[nH]cn1)NC(=O)[C@H](CCC(N)=O)NC(=O)[C@H](C)NC(=O)[C@H](CCCCNC(=O)COCCOCCNC(=O)CC[C@H](NC(=O)CCCCCCCCCCCCCCCCCCC(=O)O)C(=O)O)NC(=O)[C@H](CCCCN)NC(=O)[C@H](CC(=O)O)NC(=O)[C@H](CC(C)C)NC(=O)[C@](C)(CC(C)C)NC(=O)[C@@H](NC(=O)[C@H](CO)NC(=O)[C@H](Cc1ccc(O)cc1)NC(=O)[C@H](CC(=O)O)NC(=O)[C@H](CO)NC(=O)[C@@H](NC(=O)[C@H](Cc1ccccc1)NC(=O)[C@@H](NC(=O)CNC(=O)[C@H](CCC(N)=O)NC(=O)C(C)(C)NC(=O)[C@@H](N)Cc1ccc(O)cc1)[C@@H](C)O)[C@@H](C)O)[C@@H](C)CC)C(=O)N[C@@H](CCC(=O)O)C(=O)N[C@@H](Cc1ccc(O)cc1)C(=O)N[C@@H](CC(C)C)C(=O)N[C@@H](CC(C)C)C(=O)N[C@@H](CCC(=O)O)C(=O)NCC(=O)NCC(=O)N1CCC[C@H]1C(=O)N[C@@H](CO)C(=O)N[C@@H](CO)C(=O)NCC(=O)N[C@@H](C)C(=O)N1CCC[C@H]1C(=O)N1CCC[C@H]1C(=O)N1CCC[C@H]1C(=O)N[C@@H](CO)C(N)=O [Example 10] (H-Y[Aib]QGTFTSDYSI[αMeL]LDKK([AEEA-γGlu-C20 diacid])AQHAFIEYLLEGGPSSGAPPPS-NH2; N-terminus assumed) | 7.37 nM | 4.9 mL/h/kg | 24 h | 23.4 h | 203.5 hr*kg*nmol/L/nmol | 3.1 kg*nmol/L/nmol | 0.118 nM | 12 nM |
| CC[C@H](C)[C@H](NC(=O)[C@H](Cc1ccccc1)NC(=O)[C@H](C)NC(=O)[C@H](CCC(N)=O)NC(=O)[C@H](C)NC(=O)[C@H](C)NC(=O)[C@H](CCCCNC(=O)COCCOCCNC(=O)COCCOCCNC(=O)CC[C@H](NC(=O)CCCCCCCCCCCCCCCCCCC(=O)O)C(=O)O)NC(=O)[C@H](CCCCN)NC(=O)[C@H](CC(=O)O)NC(=O)[C@H](CC(C)C)NC(=O)[C@](C)(CC(C)C)NC(=O)[C@@H](NC(=O)[C@H](CO)NC(=O)[C@H](Cc1ccc(O)cc1)NC(=O)[C@H](CC(=O)O)NC(=O)[C@H](CO)NC(=O)[C@@H](NC(=O)[C@H](Cc1ccccc1)NC(=O)[C@@H](NC(=O)CNC(=O)[C@H](CCC(N)=O)NC(=O)C(C)(C)NC(=O)[C@@H](N)Cc1ccc(O)cc1)[C@@H](C)O)[C@@H](C)O)[C@@H](C)CC)C(=O)N[C@@H](CCC(=O)O)C(=O)N[C@@H](Cc1ccc(O)cc1)C(=O)N[C@@H](CC(C)C)C(=O)N[C@@H](CC(C)C)C(=O)N[C@@H](CCC(=O)O)C(=O)NCC(=O)NCC(=O)N1CCC[C@H]1C(=O)N[C@@H](CO)C(=O)N[C@@H](CO)C(=O)NCC(=O)N[C@@H](C)C(=O)N1CCC[C@H]1C(=O)N1CCC[C@H]1C(=O)N1CCC[C@H]1C(=O)N[C@@H](CO)C(N)=O [Example 6] (H-Y[Aib]QGTFTSDYSI[αMeL]LDKK([AEEA-AEEA-γGlu-C20 diacid])AAQAFIEYLLEGGPSSGAPPPS-NH2; N-terminus assumed) | 0.835 nM | – | – | – | – | – | 0.249 nM | 36.7 nM |
| CC[C@H](C)[C@H](NC(=O)[C@H](Cc1ccccc1)NC(=O)[C@H](C)NC(=O)[C@H](Cc1c[nH]cn1)NC(=O)[C@H](CCC(N)=O)NC(=O)[C@H](C)NC(=O)[C@H](CCCCNC(=O)COCCOCCNC(=O)COCCOCCNC(=O)CC[C@H](NC(=O)CCCCCCCCCCCCCCCCCCC(=O)O)C(=O)O)NC(=O)[C@H](CCCCN)NC(=O)[C@H](CC(=O)O)NC(=O)[C@H](CC(C)C)NC(=O)[C@](C)(CC(C)C)NC(=O)[C@@H](NC(=O)[C@H](CO)NC(=O)[C@H](Cc1ccc(O)cc1)NC(=O)[C@H](CC(=O)O)NC(=O)[C@H](CO)NC(=O)[C@@H](NC(=O)[C@H](Cc1ccccc1)NC(=O)[C@@H](NC(=O)CNC(=O)[C@H](CCC(N)=O)NC(=O)C(C)(C)NC(=O)[C@@H](N)Cc1ccc(O)cc1)[C@@H](C)O)[C@@H](C)O)[C@@H](C)CC)C(=O)N[C@@H](CCC(=O)O)C(=O)N[C@@H](Cc1ccc(O)cc1)C(=O)N[C@@H](CC(C)C)C(=O)N[C@@H](CC(C)C)C(=O)N[C@@H](CCC(=O)O)C(=O)NCC(=O)NCC(=O)N1CCC[C@H]1C(=O)N[C@@H](CO)C(=O)N[C@@H](CO)C(=O)NCC(=O)N[C@@H](C)C(=O)N1CCC[C@H]1C(=O)N1CCC[C@H]1C(=O)N1CCC[C@H]1C(=O)N[C@@H](CO)C(N)=O [Example 7] (H-Y[Aib]QGTFTSDYSI[αMeL]LDKK([AEEA-AEEA-γGlu-C20 diacid])AQHAFIEYLLEGGPSSGAPPPS-NH2) | 16.3 nM | – | – | – | – | – | 0.11 nM | 21.4 nM |
